Laboratory results: US5262423A, “Rapamycin arylcarbonyl and alkoxycarbonyl carbamates as immunosuppressive and antifungal agents” (American Home Products Corporation, priority 1992, dated 1993)
Values after ≈ are worked out from the molar mass of the structure shown. Read-outs that look alike come from different tables or passages of the source.

Key:
fungi = conditions: cited from earlier work
[1] = tested on: Candida albicans ATCC 38246; experiment: plate test procedure for anti-Candida activity, strain ATCC 38246; assay type: cell-based
Method: (§1) Immunosuppressive activity was evaluated in an in vitro standard pharmacological test procedure to measure lymphocyte proliferation (LAF) and in an in vivo procedure to evaluate the survival time of a pinch skin graft. Antifungal activity was determined against five strains of Candida albicans.
(§2) Antifungal activity of the compounds of this invention is measured against 5 strains of Candida albicans using a plate test procedure for measurement of inhibition. The following represents the typical procedure used. The compound to be tested is placed on sterile dried 1/4" plate disks, and allowed to dry. Agar plates are seeded with fungi and allowed to solidify. The impregnated disks are placed on the seeded Agar surface and incubated for the time required for the particular culture. Results shown in Table II are expressed in Minimum Inhibitory Concentration (MIC) (μg/ml) to inhibit growth.

[2] = tested on: Candida albicans ATCC 10231; experiment: plate test procedure for anti-Candida activity, strain ATCC 10231; assay type: cell-based
Method: as §1, §2

[3] = tested on: pinch skin graft (allograft); experiment: in vivo pinch skin graft survival (Skin Graft Model); design: species or system mice: male BALB/c donors, male C3 H recipients; conditions: intraperitoneally once daily for 6 consecutive days; mean ± S.D.; dose not given
Method: as §1
(§3) Immunosuppressive activity was evaluated in an in vitro standard pharmacological test procedure to measure lymphocyte proliferation (LAF) and in one in vivo standard pharmacological test procedure to evaluate the survival time of a pinch skin graft.
The in vivo test procedure is designed to determine the survival time of pinch skin graft from male BALB/c donors transplanted to male C3 H recipients. The method is adapted from Billingham R. E. and Medawar P. B., J. Exp. Biol. 28:385-402, (1951). Briefly, a pinch skin graft from the donor is grafted on the dorsum of the recipient as a allograft, and an isograft is used as control in the same region. The recipients are treated with the test compound, intraperitoneally once daily for 6 consecutive days. Untreated recipients serve as rejection control. The graft is monitored daily and observations are recorded until the graft becomes 95% area necrosis or the suture line is off. This is considered as the rejection day. The graft survival time is one day before the rejection day. The mean graft survival time (number of days ±S.D.) of the drug treatment group is compared with the control group.

[4] = tested on: Candida albicans ATCC 38248; experiment: plate test procedure for anti-Candida activity, strain ATCC 38248; assay type: cell-based
Method: as §1, §2

[5] = tested on: thymocyte proliferation (lymphocyte proliferation, LAF); experiment: comitogen-induced thymocyte proliferation procedure (LAF); assay type: cell-based, normal BALB/c mice; conditions: Mus musculus, 72 h, mouse thymocytes, 72 hours with PHA and IL-1, test compound (Analogs)
Method: as §1, §3
The comitogen-induced thymocyte proliferation procedure (LAF) was used as an in vitro measure of the immunosuppressive effects of representative compounds. Briefly, cells from the thymus of normal BALB/c mice were cultured for 72 hours with PHA and IL-1 and pulsed with tritiated thymidine during the last six hours. Cell are cultured with and without various concentrations of rapamycin, cyclosporin A, or test compound. Cells are harvested and incorporated; radiactivity is determined. Inhibition of lymphoproliferation is assessed in percent change in counts per minute from non-drug treated controls. The results are expressed by the following ratio: [formula] or as percent inhibition or IC50.

[6] = tested on: Candida albicans ATCC 38247; experiment: plate test procedure for anti-Candida activity, strain ATCC 38247; assay type: cell-based
Method: as §1, §2

Candida albicans 3669 = experiment: plate test procedure for anti-Candida activity, strain 3669; assay type: cell-based
Method: as §1, §2

transplant rejection = conditions: cited from earlier work
[7] = tested on: experimental allergic encephalomyelitis model, a model for multiple sclerosis; conditions: in vivo; cited from earlier work
[8] = tested on: adjuvant arthritis model, a model for rheumatoid arthritis; conditions: in vivo; cited from earlier work
tumor = conditions: alone or in combination with picibanil; cited from earlier work
Candida albicans = conditions: in vitro and in vivo; cited from earlier work
[9] = tested on: formation of IgE-like antibodies; conditions: in vivo; cited from earlier work
[10] = ATCC38246, Candida albicans ATCC 38246, plate test, read-out: Minimal Inhibitory Concentration (MIC), ATCC 38246
[11] = ATCC10231, Candida albicans ATCC 10231, plate test, read-out: Minimal Inhibitory Concentration (MIC), ATCC 10231
[12] = ATCC38248, Candida albicans ATCC 38248, plate test, read-out: Minimal Inhibitory Concentration (MIC), ATCC 38248
[13] = ATCC38247, Candida albicans ATCC 38247, plate test, read-out: Minimal Inhibitory Concentration (MIC), ATCC 38247
[14] = Candida albicans 3669, plate test, read-out: Minimal Inhibitory Concentration (MIC), 3669

| Compound | MIC [1, 10] [µg/mL] | MIC [2, 11] [µg/mL] | Skin Graft Model (Survival time days) [3] [days] | MIC [4, 12] [µg/mL] | IC50 [5] [nM] | MIC [6, 13] [µg/mL] | MIC (Candida albicans 3669; [14]) [µg/mL] | inhibition of transplant rejection / immunosuppressive effect (transplant rejection) | other results |
| --- | --- | --- | --- | --- | --- | --- | --- | --- | --- |
| 33-desmethylrapamycin | – | – | – | – | – | – | – | – | antifungal and immunosuppressant activities (fungi): antifungal and immunosuppressant activities |
| CO[C@H]1C[C@@H]2CC[C@@H](C)[C@@](O)(O2)C(=O)C(=O)N2CCCC[C@H]2C(=O)O[C@H]([C@H](C)C[C@@H]2CC[C@@H](OC(=O)NC(=O)c3ccccc3)[C@H](OC)C2)CC(=O)[C@H](C)/C=C(\C)[C@@H](O)[C@@H](OC)C(=O)[C@H](C)C[C@H](C)/C=C/C=C/C=C/1C [Example 1, Rapamycin 42-ester with benzoylcarbamic acid] | 0.1 (≈ 0.0942 µM) | 0.05 (≈ 0.0471 µM) | 10.5 ± 0.55 | 0.1 (≈ 0.0942 µM) | 1.4 | 0.05 (≈ 0.0471 µM) | 0.1 (≈ 0.0942 µM) | – | – |
| CO[C@H]1C[C@@H]2CC[C@@H](C)[C@@](O)(O2)C(=O)C(=O)N2CCCC[C@H]2C(=O)O[C@H]([C@H](C)C[C@@H]2CC[C@@H](OC(=O)NC(=O)c3ccccc3)[C@H](OC)C2)CC(=O)[C@H](C)/C=C(\C)[C@@H](OC(=O)CN(C)C)[C@@H](OC)C(=O)[C@H](C)C[C@H](C)/C=C/C=C/C=C/1C [Example 2, Rapamycin 31-ester with N,N-dimethylglycine, 42-ester with benzoylcarbamic acid] | 0.4 (≈ 0.349 µM) | 0.1 (≈ 0.0872 µM) | 10.4 ± 0.55 | 0.4 (≈ 0.349 µM) | 4.8 | 0.1 (≈ 0.0872 µM) | 0.4 (≈ 0.349 µM) | – | – |
| CO[C@H]1C[C@@H]2CC[C@@H](C)[C@@](O)(O2)C(=O)C(=O)N2CCCC[C@H]2C(=O)O[C@H]([C@H](C)C[C@@H]2CC[C@@H](OC(=O)NC(=O)c3ccccc3)[C@H](OC)C2)CC(=O)[C@H](C)/C=C(\C)[C@@H](OC(=O)NC(=O)c2ccccc2)[C@@H](OC)C(=O)[C@H](C)C[C@H](C)/C=C/C=C/C=C/1C [Example 3, Rapamycin 31,42 diester with benzoylcarbamic acid] | – | – | – | – | 1.2 | – | – | – | – |
| COC(=O)NC(=O)O[C@@H]1CC[C@@H](C[C@@H](C)[C@@H]2CC(=O)[C@H](C)/C=C(\C)[C@@H](O)[C@@H](OC)C(=O)[C@H](C)C[C@H](C)/C=C/C=C/C=C(\C)[C@@H](OC)C[C@@H]3CC[C@@H](C)[C@@](O)(O3)C(=O)C(=O)N3CCCC[C@H]3C(=O)O2)C[C@H]1OC [Example 4, Rapamycin 42-ester with N-methoxycarbonylcarbamic acid] | 0.2 (≈ 0.197 µM) | 0.05 (≈ 0.0492 µM) | 10.33 ± 0.52 | 0.1 (≈ 0.0985 µM) | 2.7 | 0.05 (≈ 0.0492 µM) | 0.2 (≈ 0.197 µM) | – | – |
| C=CC[C@@H]1/C=C(\C)C[C@H](C)C[C@H](OC)[C@H]2O[C@@](O)(C(=O)C(=O)N3CCCC[C@H]3C(=O)O[C@H](/C(C)=C/[C@@H]3CC[C@@H](O)[C@H](OC)C3)[C@H](C)[C@@H](O)CC1=O)[C@H](C)C[C@@H]2OC [FK-506] | – | – | – | – | – | – | – | effective as immunosuppressive agents | – |
| CO[C@H]1C[C@@H]2CC[C@@H](C)[C@@](O)(O2)C(=O)C(=O)N2CCCC[C@H]2C(=O)O[C@H]([C@H](C)C[C@@H]2CC[C@@H](O)[C@H](OC)C2)CC(=O)[C@H](C)/C=C(\C)[C@@H](O)[C@@H](OC)C(=O)[C@H](C)C[C@H](C)/C=C/C=C/C=C/1C [Rapamycin] | – | – | > 12.0 | – | – | – | – | effective in inhibiting transplant rejection | effect in experimental allergic encephalomyelitis model [7]: effective; effect in adjuvant arthritis model [8]: effective; antitumor activity (tumor): shown to have antitumor activity; MIC ([1]; Candida albicans, ATCC38246, read-out: Minimal Inhibitory Concentration (MIC), ATCC 38246): 0.025 µg/mL (≈ 0.0273 µM); antifungal activity (Candida albicans): antifungal activity, particularly against Candida albicans, both in vitro and in vivo; MIC ([2]; Candida albicans, ATCC10231, read-out: Minimal Inhibitory Concentration (MIC), ATCC 10231): 0.003 µg/mL (≈ 0.00328 µM); inhibition of formation of IgE-like antibodies [9]: effectively inhibited the formation of IgE-like antibodies; MIC ([4]; Candida albicans, ATCC38248, read-out: Minimal Inhibitory Concentration (MIC), ATCC 38248): 0.006 µg/mL (≈ 0.00656 µM); MIC ([6]; Candida albicans, ATCC38247, read-out: Minimal Inhibitory Concentration (MIC), ATCC 38247): 0.003 µg/mL (≈ 0.00328 µM); MIC (Candida albicans 3669; Candida albicans, 3669, read-out: Minimal Inhibitory Concentration (MIC), 3669): 0.025 µg/mL (≈ 0.0273 µM) |
| Cyclosporin A | – | – | – | – | – | – | – | effective as immunosuppressive agents | – |
